The test system of one data set is MCF7. In words: Cytotoxicity against Homo sapiens (human) MCF7 cells assessed as cell viability at 20 ug/ml by trypan blue assay. Conditions: read-out: Activity. The class given is functional.
For the next data set, the system named is Vero. Put plainly: Cytotoxicity against Chlorocebus aethiops (African green monkey) Vero cells assessed as cell viability at 20 ug/ml by trypan blue assay. It is filed as functional. Conditions: Chlorocebus sabaeus, read-out: Activity.
The test system of a further data set is WI-38. Put plainly: Cytotoxicity against Homo sapiens (human) WI38 cells assessed as cell viability at 20 ug/ml by trypan blue assay. It is filed as functional. Conditions: read-out: Activity.
The test system of the next data set is HepG2. Put plainly: Cytotoxicity against Homo sapiens (human) HepG2 cells assessed as cell viability at 20 ug/ml by trypan blue assay. The class given is functional. Conditions: read-out: Activity.
The nature of data set [1]: Antioxidant activity assessed as inhibition of ABTS radical production at 1 mg/ml. It is filed as functional.
A short description of data set [2]: Induction of Homo sapiens (human) RBC haemolysis at 2 ug/ml by spectrophotometric anlaysis. The following applies: red blood cells, read-out: Activity. The class given is cell-based, Erythrocyte.
Data set [3] can be described thus: Antihaemolysis activity in Homo sapiens (human) RBC assessed as inhibition of ABTS-induced haemolysis at 20 ug/ml incubated for 30 min prior to ABTS-challenge by spectrophotometric analysis. The class given is functional. Conditions: Erythrocyte.
Data set [4] can be described thus: Antioxidant activity assessed as inhibition of ABTS radical production at 2 mM. The class given is functional.

We go through 39 molecules from ChEMBL document CHEMBL3045416, “Synthesis and biological evaluation of new curcumin derivatives as antioxidant and antitumor agents” (Med Chem Res, 2013).

Broadly, the inhibition is the drop in the measured response relative to a control, in per cent. Regarding `COc1cc(/C=C2\CCC/C(=C\c3ccc(O)c(OC)c3)C2=O)ccc1O` [CYCLOVALONE], the viability at 20 µg/mL with MCF7 is 32%; with Vero, 69%; in the data set on WI-38, 58%; in the data set on HepG2, 28%. Further, the inhibition in data set [1] amounted to 74.2%.
Turning to `COc1ccc(OC)c(/C=C2\CCCC3C2=NN(c2ccc(Br)cc2)C3c2cc(OC)ccc2OC)c1` (configuration not stated), the hemolysis at 2 ug/ml in data set [2] stood at 100%. Also, the inhibition in data set [1] was determined as 0.77%.
As for `COc1ccc(OC)c(/C=C2\CCCC3=C2OC(N)=C(C#N)C3c2cc(OC)ccc2OC)c1` (configuration not stated), the inhibition in data set [1] was 0.38%.
Turning to `COc1ccc(OC)c(/C=C/C(=O)C(C)(C)C(=O)/C=C/c2cc(OC)ccc2OC)c1`, the viability at 20 µg/mL in the data set with MCF7 was found to be 79%; with Vero it was 74%; with WI-38, 80%; in the data set on HepG2, 84%. Further, in data set [2], the hemolysis at 2 ug/ml came out at 100%. Also, in data set [1], the inhibition worked out at 3.68%.
As to `COc1ccc(/C=C2\CCCC3=C2OC(N)=C(C#N)C3c2ccc(OC)cc2)cc1` (configuration not stated), the inhibition in data set [1] was found to be 0.38%.
Turning to `Brc1ccc(N2N=C3/C(=C/c4ccccc4)CCCC3C2c2ccccc2)cc1` (configuration not stated), the hemolysis at 2 ug/ml in data set [2] stood at 100%. Further, the inhibition in data set [1] worked out at 1.74%.
As to `COc1cc(/C=C/C(=O)CC(=O)/C=C/c2ccc(O)c(OC)c2)ccc1O` [CURCUMIN], the viability at 20 µg/mL came to 19% with MCF7, 24% in the data set with Vero, 51% in the data set with WI-38 and 18% with HepG2. In addition, the inhibition in data set [1] worked out at 87.6%.
Taken in the same sequence, the figures for `Oc1ccc(/C=C2\CCCC3C2=NNC3c2ccc(O)cc2)cc1` (configuration not stated) were 75%, 76%, 88%, 89% and 54.5%.
As for `COc1ccc(/C=C2\CCC/C(=C\c3ccc(OC)c(OC)c3)C2=O)cc1OC`, the hemolysis at 2 ug/ml in data set [2] was 100%. Besides, the inhibition in data set [1] was determined as 0%.
As to `O=C1/C(=C/c2ccc(Cl)cc2)CCC/C1=C\c1ccc(Cl)cc1`, the hemolysis at 2 ug/ml in data set [2] was determined as 100%. Moreover, the inhibition in data set [1] stood at 0.58%.
`N#CC1=C(N)OC2=C(CCC/C2=C\c2ccccc2)C1c1ccccc1` (configuration not stated): the inhibition in data set [1] turned out to be 0.19%.
`COc1cc(/C=C2\CCCC3=C2OC(N)=C(C#N)C3c2ccc(O)c(OC)c2)ccc1O` (configuration not stated): the viability at 20 µg/mL turned out to be 79% in the data set with MCF7, 82% in the data set with Vero, 84% in the data set with WI-38 and 81% in the data set on HepG2. The hemolysis at 2 ug/ml in data set [2] is 100%. In addition, in data set [1], the inhibition is 57.8%.
Take `N#CC1=C(N)OC2=C(CCC/C2=C\c2ccc(Cl)cc2)C1c1ccc(Cl)cc1` (configuration not stated): the inhibition in data set [1] was found to be 1.55%.
For `COc1ccc(OC)c(/C=C2\CCCC/C(=C\c3cc(OC)ccc3OC)C2=O)c1`, the hemolysis at 2 ug/ml in data set [2] came out at 100%. Besides, the inhibition in data set [1] was 5.03%.
Taken in the same sequence, the figures for `COc1ccc(/C=C2\CCCC3C2=NN(c2ccc(Br)cc2)C3c2ccc(OC)cc2)cc1` (configuration not stated) were 100% and 5.03%.
Consider `CC(C)(C(=O)/C=C/c1ccccc1)C(=O)/C=C/c1ccccc1`, for which the hemolysis at 2 ug/ml in data set [2] amounted to 100%. Further, the inhibition in data set [1] stood at 4.84%.
For the molecule `COc1ccc(/C=C2\CCCCC3C2=NN(c2ccc(Br)cc2)C3c2ccc(OC)cc2)cc1` (configuration not stated), the hemolysis at 2 ug/ml in data set [2] is 100%.
Regarding `N#CC1=C(N)OC2=C(CCC/C2=C\c2ccc(O)cc2)C1c1ccc(O)cc1` (configuration not stated), the viability at 20 µg/mL in the data set on MCF7 came out at 82%; with Vero, 83%; with WI-38 it was 79%; with HepG2, 78%. Further, the hemolysis at 2 ug/ml in data set [2] was 100%. For the same molecule, the inhibition in data set [1] is 16.7%.
As to `COc1ccc(/C=C2\CCCC/C(=C\c3ccc(OC)c(OC)c3)C2=O)cc1OC`, in data set [2], the hemolysis at 2 ug/ml was 100%. Moreover, the inhibition in data set [1] amounted to 0.77%.
As to `COc1ccc(OC)c(/C=C2\CCCC3C2=NNC3c2cc(OC)ccc2OC)c1` (configuration not stated), the viability at 20 µg/mL with MCF7 worked out at 82%; in the data set with Vero, 67%; in the data set on WI-38, 100%; in the data set on HepG2, 78%. Further, the hemolysis at 2 ug/ml in data set [2] came out at 100%. The inhibition in data set [1] amounted to 25.6%.
`COc1ccc(/C=C2\CCCCC3C2=NN(c2ccc(Br)cc2)C3c2ccc(OC)c(OC)c2)cc1OC` (configuration not stated): the hemolysis at 2 ug/ml in data set [2] came to 100%.
In the case of `COc1ccc(/C=C2\CCCC3C2=NN(c2ccc(Br)cc2)C3c2ccc(OC)c(OC)c2)cc1OC` (configuration not stated), the hemolysis at 2 ug/ml in data set [2] came to 100%. Further, in data set [1], the inhibition came out at 0.19%.
Turning to `CCOc1ccc(/C=C/C(=O)C(CC)(CC)C(=O)/C=C/c2ccc(OCC)c(OC)c2)cc1OC`, the viability at 20 µg/mL came to 94% in the data set with MCF7, 88% in the data set on Vero, 82% in the data set with WI-38 and 78% in the data set with HepG2. The inhibition in data set [1] amounted to 26.4%.
Turning to `COc1ccc(OC)c(/C=C2\CCC/C(=C\c3cc(OC)ccc3OC)C2=O)c1`, in data set [2], the hemolysis at 2 ug/ml stood at 100%. The inhibition in data set [1] worked out at 1.16%.
For `COc1ccc(/C=C2\CCCC3=C2OC(N)=C(C#N)C3c2ccc(OC)c(OC)c2)cc1OC` (configuration not stated), the viability at 20 µg/mL with MCF7 was determined as 21%; with Vero, 65%; with WI-38, 12%; in the data set on HepG2, 19%. In data set [2], the hemolysis at 2 ug/ml is 100%. For the same molecule, in data set [1], the inhibition came to 16.9%.
Take `O=C1/C(=C/c2ccc(O)cc2)CCC/C1=C\c1ccc(O)cc1`: the viability at 20 µg/mL amounted to 74% with MCF7, 84% in the data set with Vero, 77% in the data set with WI-38 and 88% in the data set on HepG2. Besides, the hemolysis at 2 ug/ml in data set [2] was 100%. The inhibition in data set [1] was found to be 9.49%.
As for `COc1ccc(OC)c(/C=C2\CCCCC3C2=NN(c2ccc(Br)cc2)C3c2cc(OC)ccc2OC)c1` (configuration not stated), the hemolysis at 2 ug/ml in data set [2] is 100%.
Consider `COc1ccc(/C=C/C(=O)C(C)(C)C(=O)/C=C/c2ccc(OC)cc2)cc1`, for which the hemolysis at 2 ug/ml in data set [2] amounted to 100%. Further, the inhibition in data set [1] came out at 7.75%.
Consider `O=c1[nH]cc(F)c(=O)[nH]1` [FLUOROURACIL], for which the viability at 20 µg/mL with MCF7, in the data set on Vero, with WI-38 and in the data set with HepG2 was 0% in each case.
On to `COc1ccc(/C=C/C(=O)C(C)(C)C(=O)/C=C/c2ccc(OC)c(OC)c2)cc1OC`, for which the viability at 20 µg/mL in the data set with MCF7 is 87%; in the data set with Vero it was 89%; in the data set on WI-38, 75%; with HepG2 it was 78%. Besides, the hemolysis at 2 ug/ml in data set [2] stood at 100%. For the same molecule, the inhibition in data set [1] was found to be 12.6%.
Regarding `Clc1ccc(/C=C2\CCCC3C2=NN(c2ccc(Br)cc2)C3c2ccc(Cl)cc2)cc1` (configuration not stated), in data set [2], the hemolysis at 2 ug/ml amounted to 100%. Moreover, in data set [1], the inhibition worked out at 2.9%.
For `CC(C)(C(=O)/C=C/c1ccc(O)cc1)C(=O)/C=C/c1ccc(O)cc1`, the viability at 20 µg/mL is 64% in the data set on MCF7, 82% in the data set with Vero, 88% in the data set with WI-38 and 57% with HepG2. Moreover, the hemolysis at 2 ug/ml in data set [2] worked out at 100%. The inhibition in data set [1] came to 28.7%.
With `COc1cc(/C=C/C(=O)C(C)(C)C(=O)/C=C/c2ccc(O)c(OC)c2)ccc1O`, the viability at 20 µg/mL in the data set on MCF7 is 55%; in the data set with Vero, 82%; in the data set on WI-38, 78%; in the data set on HepG2, 47%. Besides, in data set [1], the inhibition was 52.9%.
As for `O=C1O[C@H]([C@@H](O)CO)C(O)=C1O` [ASCORBIC ACID], the inhibition at 20 µg/mL in data set [3] was 17.6%. Further, the inhibition in data set [4] came out at 80.8%.
As to `O=C1/C(=C/c2ccccc2)CCC/C1=C\c1ccccc1`, in data set [1], the inhibition turned out to be 1.93%.
Turning to `COc1ccc(/C=C2\CCC/C(=C\c3ccc(OC)cc3)C2=O)cc1`, the hemolysis at 2 ug/ml in data set [2] turned out to be 100%. In data set [1], the inhibition is 1.35%.
For `CC(C)(C(=O)/C=C/c1ccc(Cl)cc1)C(=O)/C=C/c1ccc(Cl)cc1`, the hemolysis at 2 ug/ml in data set [2] worked out at 100%. Moreover, the inhibition in data set [1] is 2.32%.
Taken in the same sequence, the figures for `COc1ccc(/C=C2\CCCC/C(=C\c3ccc(OC)cc3)C2=O)cc1` were 100% and 1.74%.
Take `COc1cc(/C=C2\CCCC3C2=NNC3c2ccc(O)c(OC)c2)ccc1O` (configuration not stated): the viability at 20 µg/mL with MCF7 stood at 19%; with Vero, 12%; in the data set on WI-38, 65%; in the data set with HepG2, 21%. The inhibition in data set [1] turned out to be 76.7%.
